Experimental data taken from patent publication US20220324865A1 (Bayer Aktiengesellschaft, priority 2018, published 2022).
Where a name gives a salt, the structure may show the parent alone.

Target: T1, human EP3 receptor (Homo sapiens, UniProt P43115)
T1 construct: expressed in transfected cells; host or cells: CHO K1 (Chinese Hamster Ovary), stably co-transfected with Galpha16 and mitochondrial clytin
T1 sequence (P43115 1-390): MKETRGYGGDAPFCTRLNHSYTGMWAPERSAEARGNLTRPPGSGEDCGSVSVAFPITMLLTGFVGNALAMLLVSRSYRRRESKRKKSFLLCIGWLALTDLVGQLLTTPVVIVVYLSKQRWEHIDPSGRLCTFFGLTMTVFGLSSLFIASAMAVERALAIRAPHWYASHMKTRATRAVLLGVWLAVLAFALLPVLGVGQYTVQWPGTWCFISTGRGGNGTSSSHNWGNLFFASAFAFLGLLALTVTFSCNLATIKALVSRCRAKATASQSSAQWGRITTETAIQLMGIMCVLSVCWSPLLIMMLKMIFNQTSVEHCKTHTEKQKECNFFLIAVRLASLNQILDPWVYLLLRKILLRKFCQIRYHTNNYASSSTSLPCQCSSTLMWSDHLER
Assay: Cellular in vitro assay for determining EP3 receptor activity (human EP3 cell line, sulprostone-stimulated calcium luminescence)
Assay type: cell-based
Conditions: CHO cells expressing human EP3 and mitochondrial Clytin; antagonist mode, sulprostone at EC50; read-out: EP3 CHO mtCLY ANTAG IC50
In short: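 CHO K1 cells stably expressing human EP3 with Gα16 and mitochondrial Clytin, loaded overnight with coelenterazine. Compounds added 10 min before sulprostone at its EC50; antagonism read immediately as reduced calcium-driven luminescence, quadruplicate points.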

Structure (SMILES)	IC50
Cc1cccc2ncc(-c3cn4nc(C(=O)NC(c5ccc(F)cc5)C(C)C)c(C(C)C)c4c(=O)[nH]3)cc12 (centres unmarked) [Example 4-51, N-[1-(4-Fluorophenyl)-2-methylpropyl]-3-isopropyl-6-(5-methyl-3-quinolyl)-4-oxo-5H-pyrazolo[1,5-a]pyrazine-2-carboxamide]	4.05 nM
Cc1ccc(-c2cn3nc(C(=O)NCC(O)C(F)(F)F)c(C(F)(F)F)c3c(=O)[nH]2)cc1C (single isomer, unassigned) [6-117]	3.85 nM
Cc1cccc2ncc(-c3cn4nc(C(=O)NCc5cc[nH]n5)c(C(C)C)c4c(=O)[nH]3)cc12 [Example 4-14, 6-(5-Methylquinolin-3-yl)-4-oxo-3-(propan-2-yl)-N-[(1H-pyrazol-3-yl)methyl]-4,5-dihydropyrazolo[1,5-a]pyrazine-2-carboxamide]	2.5 nM
COc1ccc(C2(NC(=O)c3cc4c(=O)[nH]c(-c5ccc6c(c5)OCCO6)cn4n3)CN(C(=O)OC(C)(C)C)C2)cc1 [6-58]	2.3 nM
C[C@H](NC(=O)c1cc2c(=O)[nH]c(-c3ccc4ccccc4c3)cn2n1)c1ccccc1 [Example 2-34, 6-(2-Naphthyl)-4-oxo-N-[(7S)-1-phenylethyl]-4,5-dihydropyrazolo[1,5-a]pyrazine-2-carboxamide]	1.9 nM
Cc1cc(-c2cn3nc(C(=O)N[C@H](CCO)c4ccc(F)cc4)c(C(F)(F)F)c3c(=O)[nH]2)ccc1Cl [6-233]	0.37 nM
Cc1ccc(-c2cn3nc(C(=O)NCC(O)C(F)(F)F)c(C(F)(F)F)c3c(=O)[nH]2)cc1Cl (racemic) [6-158]	1.55 nM
COc1ccc(C(C)NC(=O)c2nn3cc(-c4ccc5ccccc5c4)[nH]c(=O)c3c2C#N)cc1 (centres unmarked) [Example 3-51, 3-Cyano-N-[1-(4-methoxyphenyl)ethyl]-6-(2-naphthyl)-4-oxo-5H-pyrazolo[1,5-a]pyrazine-2-carboxamide]	1.85 nM
CCn1nccc1CNC(=O)c1nn2c(C)c(-c3ccc(C)c(C)c3)[nH]c(=O)c2c1C(F)(F)F [6-13]	9.3 nM
Cc1c(C(=O)NC(C)c2ccccn2)nn2c(C)c(-c3ccc4ccccc4c3)[nH]c(=O)c12 (centres unmarked) [Example 3-17, 3,7-Dimethyl-6-(2-naphthyl)-4-oxo-N-[1-(2-pyridyl)ethyl]-5H-pyrazolo[1,5-a]pyrazine-2-carboxamide]	1.8 nM
Cc1ccc(-c2cn3nc(C(=O)NCCN(C)C4CC4)c(C4CC4)c3c(=O)[nH]2)cc1F [6-384]	3.4 nM
COC[C@@H](C)NC(=O)c1nn2cc(-c3ccc4ccccc4c3)[nH]c(=O)c2c1C(F)(F)F [6-516]	4.4 nM
O=C(NCCc1ccc(F)cc1)c1cc2c(=O)[nH]c(-c3ccc4ccccc4c3)cn2n1 [Example 2-7, N-[2-(4-Fluorophenyl)ethyl]-6-(2-naphthyl)-4-oxo-4,5-dihydropyrazolo[1,5-a]pyrazine-2-carboxamide]	4.7 nM
Cc1ccc(-c2cn3nc(C(=O)NC4(c5ccc(F)cc5)CN(C)C4)c(C(C)C)c3c(=O)[nH]2)cc1C [Example 1-91, 6-(3,4-Dimethylphenyl)-N-[3-(4-fluorophenyl)-1-methylazetidin-3-yl]-4-oxo-3-(propan-2-yl)-4,5-dihydropyrazolo[1,5-a]pyrazine-2-carboxamide]	0.915 nM
O=C(NC(CO)c1ccc(F)cc1)c1cc2c(=O)[nH]c(-c3ccc4cccnc4c3)cn2n1 (centres unmarked) [6-30]	2.15 nM
CN1CC(NC(=O)c2cc3c(=O)[nH]c(-c4ccc5ccccc5c4)cn3n2)(c2ccc(F)cc2)C1 [Example 1-49, N-[3-(4-Fluorophenyl)-1-methylazetidin-3-yl]-6-(naphthalen-2-yl)-4-oxo-4,5-dihydropyrazolo-[1,5-a]pyrazine-2-carboxamide formic acid salt]	7.65 nM

Structure (SMILES)	IC50
Cc1cccc2ncc(-c3cn4nc(C(=O)N[C@H]5CCCc6ccccc65)c(C(C)C)c4c(=O)[nH]3)cc12 [Example 4-58, 6-(5-Methylquinolin-3-yl)-4-oxo-3-(propan-2-yl)-N-[(7S)-1,2,3,4-tetrahydronaphthalen-1-yl]-4,5-dihydropyrazolo[1,5-a]pyrazine-2-carboxamide]	4.3 nM
O=C(N[C@@H]1c2ccccc2C[C@@H]1O)c1cc2c(=O)[nH]c(-c3ccc4ccccc4c3)cn2n1 [6-74]	5.77 nM
Cc1c(C(=O)NCCOCC(F)(F)F)nn2c(C)c(-c3ccc4ccccc4c3)[nH]c(=O)c12 [Example 3-3, 3,7-Dimethyl-6-(naphthalen-2-yl)-4-oxo-N-[2-(2,2,2-trifluoroethoxy)ethyl]-4,5-dihydropyrazolo[1,5-a]pyrazine-2-carboxamide]	5.4 nM
Cc1ccc(-c2cn3nc(C(=O)NC(CO)C(F)(F)F)c(C4CC4)c3c(=O)[nH]2)cc1C(F)(F)F (single isomer, unassigned) [6-250]	6.3 nM
Cc1ccc(-c2[nH]c(=O)c3c(C4CC4)c(C(=O)N[C@@H](c4ccc(F)cc4)C(C)(C)O)nn3c2C#N)cc1C [6-617]	7.65 nM
COC[C@@H](NC(=O)c1nn2cc(-c3ccc4ccccc4c3)[nH]c(=O)c2c1C(F)(F)F)c1ccccc1 [6-495]	0.61 nM
COc1ccc(CNC(=O)c2cc3c(=O)[nH]c(-c4ccc5ccccc5c4)cn3n2)cc1OC [Example 1-103, N-(3,4-Dimethoxybenzyl)-6-(2-naphthyl)-4-oxo-4,5-dihydropyrazolo[1,5-a]pyrazin-2-carboxamide]	1.87 nM
Cc1ccc(-c2cn3nc(C(=O)N[C@H](CCO)c4ccccc4)cc3c(=O)[nH]2)cc1C [Example 1-14, 6-(3,4-Dimethylphenyl)-N-[(1R)-3-hydroxy-1-phenylpropyl]-4-oxo-4,5-dihydropyrazolo[1,5-a]-pyrazine-2-carboxamide]	0.14 nM
Cc1ccc(-c2cn3nc(C(=O)NC4CCN(CC(F)(F)F)C4)c(C4CC4)c3c(=O)[nH]2)cc1F (single isomer, unassigned) [6-390]	8.5 nM
Cc1cc(-c2cn3nc(C(=O)N[C@H](c4ccc(F)cc4)C(C)(C)O)c(C4CC4)c3c(=O)[nH]2)ccc1C(F)(F)F [6-134]	8.6 nM
Cc1cccc2ncc(-c3cn4nc(C(=O)NC5CCS(=O)(=O)C5)c(C(C)C)c4c(=O)[nH]3)cc12 (centres unmarked) [Example 4-12, N-(1,1-Dioxothiolan-3-yl)-3-isopropyl-6-(5-methyl-3-quinolyl)-4-oxo-5H-pyrazolo[1,5-a]pyrazine-2-carboxamide]	1.65 nM
COc1cc(-c2cn3nc(C(=O)NC4(c5ccc(F)cc5)CN(C)C4)c(C4CC4)c3c(=O)[nH]2)ccc1Cl [6-485]	3.4 nM
COc1ccc(C(CCO)NC(=O)c2nn3cc(-c4cnc5cccc(C)c5c4)[nH]c(=O)c3c2C(C)C)cc1 (centres unmarked) [Example 4-83, N-[3-Hydroxy-1-(4-methoxyphenyl)propyl]-3-isopropyl-6-(5-methyl-3-quinolyl)-4-oxo-5H-pyrazolo[1,5-a]pyrazine-2-carboxamide]	2 nM
CCn1cc(Cl)c(CNC(=O)c2nn3c(C)c(-c4ccc5ccccc5c4)[nH]c(=O)c3c2C)n1 [Example 3-8, N-[(4-Chloro-1-ethyl-1H-pyrazol-3-yl)methyl]-3,7-dimethyl-6-(naphthalen-2-yl)-4-oxo-4,5-dihydropyrazolo[1,5-a]pyrazine-2-carboxamide]	2.9 nM
CC(C)(O)[C@@H](NC(=O)c1nn2cc(-c3ccc(Cl)c(F)c3)[nH]c(=O)c2c1C(F)(F)C(F)(F)F)c1ccc(F)cc1 [6-493]	2.98 nM
Cc1ccc(-c2cn3nc(C(=O)NC(C)CN4CCOCC4)c(C4CC4)c3c(=O)[nH]2)cc1C (single isomer, unassigned) [6-451]	5.35 nM
